US8148391B2 (Cephalon, Inc., priority 2006, dated 2012)
pIC50: −log10 of the molar value. Like-named read-outs stand apart in the source and are kept apart here.

Experiments:
[1] = biological target: T1, baculovirus-expressed ALK (Homo sapiens, UniProt Q9UM73); test: ALK Kinase Assay (ELISA-type, time-resolved fluorescence); assay type: biochemical
T1 construct: host or cells: baculovirus expression system
How it was run: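 Plates coated with phospholipase C-γ substrate (10 μg/mL in TBS); reaction started with 30 ng/ml ALK and run 15 min at 37° C. Phosphorylated substrate detected with Eu-N1-labeled PT66 antibody. IC50 from sigmoidal variable-slope fit of percent inhibition vs log concentration.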

[2] = biological target: T2, c-Met (cytoplasmic domain) (Homo sapiens, UniProt P08581); test: c-Met Kinase Assay (same methods as for ALK, with modifications); assay type: biochemical
T2 construct: 10 ng/mL c-Met (cytoplasmic domain, Invitrogen Corporation #PV3143); purchased Invitrogen Corporation PV3143
T2 sequence (P08581 956-1390 limits assumed): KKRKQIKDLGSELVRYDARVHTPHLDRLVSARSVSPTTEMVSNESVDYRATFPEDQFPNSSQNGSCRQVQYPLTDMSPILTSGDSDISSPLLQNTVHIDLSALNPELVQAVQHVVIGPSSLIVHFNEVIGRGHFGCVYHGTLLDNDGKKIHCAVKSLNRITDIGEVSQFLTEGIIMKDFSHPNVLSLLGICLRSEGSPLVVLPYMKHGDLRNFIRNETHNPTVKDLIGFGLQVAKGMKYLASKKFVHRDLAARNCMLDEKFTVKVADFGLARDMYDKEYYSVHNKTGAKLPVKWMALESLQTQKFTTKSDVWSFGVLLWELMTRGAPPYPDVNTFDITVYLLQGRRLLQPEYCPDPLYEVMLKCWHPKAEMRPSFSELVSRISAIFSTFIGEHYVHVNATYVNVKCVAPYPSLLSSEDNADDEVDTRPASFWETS
How it was run: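 Europium-labeled PT66 antibody (Eu-N1) detects substrate phosphorylation on wells coated with phospholipase C-γ at 10 μg/mL. The kinase, the cytoplasmic domain of c-Met at 10 ng/mL, starts the reaction, which proceeds 15 minutes at 37° C.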

[3] = 1 μM ATP (Km level), read-out: ALK Activity (ALK Kinase Inhibition, IC50)
[4] = 1 μM ATP (Km level), read-out: cMet Activity (c-Met Kinase Inhibition, IC50)
[5] = ALK kinase inhibition, 1 μM ATP, read-out: ALK Activity
[6] = c-Met kinase inhibition, 1 μM ATP, read-out: cMet Activity
[7] = 1 μM ATP (Km level), 30 ng/ml ALK, 37° C., 15 minutes, read-out: ALK Activity (ALK kinase inhibition, IC50 class)
[8] = 1 μM ATP (Km level), 10 ng/mL c-Met, read-out: cMet Activity (c-Met kinase inhibition, IC50 class)

T1 sequence (Q9UM73 19-1620): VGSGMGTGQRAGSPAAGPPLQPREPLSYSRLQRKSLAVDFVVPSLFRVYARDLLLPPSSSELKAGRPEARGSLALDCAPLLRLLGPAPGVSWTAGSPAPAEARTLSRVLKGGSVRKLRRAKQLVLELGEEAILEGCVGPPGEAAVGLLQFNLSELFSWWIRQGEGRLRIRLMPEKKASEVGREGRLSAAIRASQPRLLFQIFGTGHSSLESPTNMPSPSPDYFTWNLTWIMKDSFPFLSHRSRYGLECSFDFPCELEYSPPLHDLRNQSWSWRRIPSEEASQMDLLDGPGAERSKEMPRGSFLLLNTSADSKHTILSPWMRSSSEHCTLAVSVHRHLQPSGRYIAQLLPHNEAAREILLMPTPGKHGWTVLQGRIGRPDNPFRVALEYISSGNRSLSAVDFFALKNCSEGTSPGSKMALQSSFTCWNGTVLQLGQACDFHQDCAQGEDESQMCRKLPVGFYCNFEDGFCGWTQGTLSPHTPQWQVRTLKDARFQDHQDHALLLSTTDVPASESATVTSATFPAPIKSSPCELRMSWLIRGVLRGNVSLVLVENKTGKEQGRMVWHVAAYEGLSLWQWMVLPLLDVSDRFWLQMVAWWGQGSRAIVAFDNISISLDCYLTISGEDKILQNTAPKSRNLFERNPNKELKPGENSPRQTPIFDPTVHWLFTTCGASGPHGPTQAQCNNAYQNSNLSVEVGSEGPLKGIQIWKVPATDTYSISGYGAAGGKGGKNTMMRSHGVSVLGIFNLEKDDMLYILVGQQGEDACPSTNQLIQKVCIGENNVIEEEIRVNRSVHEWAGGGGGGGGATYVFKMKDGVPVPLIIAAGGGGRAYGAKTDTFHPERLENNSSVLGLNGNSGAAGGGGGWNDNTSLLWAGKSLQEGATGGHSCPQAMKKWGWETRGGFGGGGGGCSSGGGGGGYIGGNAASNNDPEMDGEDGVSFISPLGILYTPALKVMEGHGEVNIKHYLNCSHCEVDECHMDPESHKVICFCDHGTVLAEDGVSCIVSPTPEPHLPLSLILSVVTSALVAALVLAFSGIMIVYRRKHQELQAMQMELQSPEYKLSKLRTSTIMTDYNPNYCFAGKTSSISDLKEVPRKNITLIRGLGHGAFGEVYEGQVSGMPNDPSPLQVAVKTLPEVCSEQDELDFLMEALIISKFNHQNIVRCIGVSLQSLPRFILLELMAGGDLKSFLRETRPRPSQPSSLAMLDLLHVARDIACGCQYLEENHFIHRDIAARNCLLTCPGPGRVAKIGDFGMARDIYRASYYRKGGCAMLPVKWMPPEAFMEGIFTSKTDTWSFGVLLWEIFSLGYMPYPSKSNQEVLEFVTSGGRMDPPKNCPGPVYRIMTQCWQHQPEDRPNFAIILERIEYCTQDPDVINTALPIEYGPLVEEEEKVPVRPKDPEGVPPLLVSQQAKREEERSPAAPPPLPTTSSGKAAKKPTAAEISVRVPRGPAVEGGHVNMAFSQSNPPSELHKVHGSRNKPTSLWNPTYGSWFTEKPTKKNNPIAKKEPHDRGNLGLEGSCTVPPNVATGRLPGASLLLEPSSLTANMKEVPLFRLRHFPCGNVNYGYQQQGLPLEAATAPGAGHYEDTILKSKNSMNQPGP

| Structure (SMILES) | pIC50 [1, 5] | pIC50 [2, 6] | pIC50 [1, 7] | pIC50 [2, 8] | further results |
| --- | --- | --- | --- | --- | --- |
| COCCN1CCc2cc(Nc3ncc(Cl)c(Nc4ccc(N5CCN(C)CC5)cc4OC)n3)c(OC)cc2CC1 [Example 790, 5-Chloro-N*2*-[8-methoxy-3-(2-methoxy-ethyl)-2,3,4,5-tetrahydro-1H-benzo[d]azepin-7-yl]-N*4*-[2-methoxy-4-(4-methyl-piperazin-1-yl)-phenyl]-pyrimidine-2,4-diamine] |  |  |  |  | pIC50 [1, 3]: > 7.00; pIC50 [2, 4]: < 5.00 |
| CN1CCN(C2CCc3ccc(Nc4ncc(Cl)c(N[C@H]5[C@@H](C(N)=O)[C@@H]6C=C[C@H]5C6)n4)cc3CC2)CC1 (stereo partly drawn) [Example 892, (1S,2S,3R,4R)-3-{5-Chloro-2-[7-(4-methyl-piperazin-1-yl)-6,7,8,9-tetrahydro-5H-benzocyclohepten-2-ylamino]-pyrimidin-4-ylamino}-bicyclo[2.2.1]hept-5-ene-2-carboxylic acid amide] |  |  |  |  | pIC50 [1, 3]: > 7.00; pIC50 [2, 4]: 5.00 to 6.00 |
| CNC(=O)c1cc(F)cc(F)c1Nc1nc(Nc2ccc3c(c2)N(C(C)=O)CCCC3(C)C)ncc1Cl [Example 1608, 2-[2-(1-Acetyl-5,5-dimethyl-2,3,4,5-tetrahydro-1H-benzo[b]azepin-8-ylamino)-5-chloro-pyrimidin-4-ylamino]-3,5-difluoro-N-methyl-benzamide] | 6.00 to 7.00 | > 7.00 |  |  |  |
| C#CCNC(=O)c1cccc(F)c1Nc1nc(Nc2ccc3c(c2)NC(=O)CCC3(C)C)ncc1Cl [Example 1406, 2-[5-Chloro-2-(5,5-dimethyl-2-oxo-2,3,4,5-tetrahydro-1H-benzo[b]azepin-8-ylamino)-pyrimidin-4-ylamino]-3-fluoro-N-prop-2-ynyl-benzamide] |  |  | 6.00 to 7.00 | > 7.00 |  |
| CNC(=O)c1cc(F)ccc1Nc1nc(Nc2ccc3c(c2)CCOC(=O)N3C)ncc1Cl [Example 1752, 2-[5-Chloro-2-(5-methyl-6-oxo-5,6,8,9-tetrahydro-7-oxa-5-aza-benzocyclohepten-2-ylamino)-pyrimidin-4-ylamino]-5-fluoro-N-methyl-benzamide] | > 7.00 | > 7.00 |  |  |  |
| COCC(COC)N1CCc2cc(Nc3ncc(Cl)c(Nc4ccc(N5CCOCC5)cc4OC)n3)c(OC)cc2CC1 [Example 814, 5-Chloro-N*2*-[8-methoxy-3-(2-methoxy-1-methoxymethyl-ethyl)-2,3,4,5-tetrahydro-1H-benzo[d]azepin-7-yl]-N*4*-(2-methoxy-4-morpholin-4-yl-phenyl)-pyrimidine-2,4-diamine] |  |  |  |  | pIC50 [1, 3]: > 7.00; pIC50 [2, 4]: < 5.00 |
| COc1cc2c(cc1Nc1ncc(Cl)c(N[C@H]3[C@@H](C(N)=O)[C@@H]4C=C[C@H]3C4)n1)N(C)C(=O)CN(CC#N)C2 [Example 744, (1S,2S,3R,4R)-3 [5-Chloro-2-(4-cyanomethyl-7-methoxy-1-methyl-2-oxo-2,3,4,5-tetrahydro-1H-benzo[e][1,4]diazepin-8-ylamino)-pyrimidin-4-ylamino]-bicyclo(2.2.1)hept-5-ene-2-carboxylic acid amide] |  |  |  |  | pIC50 [1, 3]: 6.00 to 7.00; pIC50 [2, 4]: < 5.00 |
| Cc1cccc(C(N)=O)c1Nc1nc(Nc2ccc3c(c2)NC(=O)CCC3(C)C)ncc1Cl [Example 1577, 2-[5-Chloro-2-(5,5-dimethyl-2-oxo-2,3,4,5-tetrahydro-1H-benzo[b]azepin-8-ylamino)-pyrimidin-4-ylamino]-3-methyl-benzamide] | 5.00 to 6.00 | 6.00 to 7.00 |  |  |  |
| CCN1C(=O)CCC(C)(C)c2cc(Nc3ncc(Cl)c(N[C@@H]4CCCC[C@H]4NS(C)(=O)=O)n3)ccc21 [Example 388, N-{(1R,2R)-2-[5-Chloro-2-(1-ethyl-5,5-dimethyl-2-oxo-2,3,4,5-tetrahydro-1H-benzo[b]azepin-7-ylamino)-pyrimidin-4-ylamino]-cyclohexyl}-methanesulfonamide] |  |  |  |  | pIC50 ([1]; ALK kinase inhibition, 1 μM ATP (Km level), read-out: ALK Activity): > 7.00; pIC50 ([2]; c-Met kinase inhibition, 1 μM ATP (Km level), read-out: cMet Activity): 5.00 to 6.00 |
| C#CCNC(=O)c1cccc(F)c1Nc1nc(Nc2ccc3c(c2)N(CC)C(=O)C(NC(=O)COC)CC3)ncc1Cl (stereo not drawn) [Example 1499, 2-{5-Chloro-2-[1-ethyl-3-(2-methoxy-acetylamino)-2-oxo-2,3,4,5-tetrahydro-1H-benzo[b]azepin-8-ylamino]-pyrimidin-4-ylamino}-3-fluoro-N-prop-2-ynyl-benzamide] | 6.00 to 7.00 | > 7.00 |  |  |  |
| CNC(=O)C1C2C=CC(C2)C1Nc1nc(Nc2ccc3c(c2)CCC(N2CCOCC2)CC3)ncc1Cl (stereo not drawn) [Example 624, (2-exo-3-exo)-3-[5-Chloro-2-(7-morpholin-4-yl-6,7,8,9-tetrahydro-5H-benzocyclohepten-2-ylamino)-pyrimidin-4-ylamino]-bicyclo[2.2.1]hept-5-ene-2-carboxylic acid methylamide] |  |  |  |  | pIC50 [1, 3]: > 7.00; pIC50 [2, 4]: 6.00 to 7.00 |
| CNC(=O)c1cccc(F)c1Nc1nc(Nc2ccc3c(c2)N(CCOC)CCCC3(C)C)ncc1Cl [Example 1599, 2-{5-Chloro-2-[1-(2-methoxy-ethyl)-5,5-dimethyl-2,3,4,5-tetrahydro-1H-benzo[b]azepin-8-ylamino]-pyrimidin-4-ylamino}-3-fluoro-N-methyl-benzamide] | > 7.00 | > 7.00 |  |  |  |
| CNC(=O)c1cccc(F)c1Nc1nc(Nc2ccc3c(c2)NCC(NCCOC)CC3(C)C)ncc1Cl (stereo not drawn) [Example 1294, 2-{5-Chloro-2-[3-(2-methoxy-ethylamino)-5,5-dimethyl-2,3,4,5-tetrahydro-1H-1-benzazepin-8-ylamino]-pyrimidin-4-ylamino}-3-fluoro-N-methyl-benzamide] |  |  | > 7.00 | > 7.00 |  |

Further lines, with some results ahead:

| pIC50 [1, 5] | pIC50 [2, 6] | pIC50 [1, 7] | pIC50 [2, 8] | Structure (SMILES) | further results |
| --- | --- | --- | --- | --- | --- |
|  |  | > 7.00 | 5.00 to 6.00 | COc1cc2c(cc1Nc1ncc(Cl)c(Nc3ccccc3S(=O)(=O)N(C)C)n1)CCN(Cc1ncco1)CC2 [Example 1170, 2-[5-Chloro-2-(8-methoxy-3-oxazol-2-ylmethyl-2,3,4,5-tetrahydro-1H-benzo[d]azepin-7-ylamino)-pyrimidin-4-ylamino]-N,N-dimethyl-benzenesulfonamide] |  |
|  |  | > 7.00 | < 5.00 | COc1cc2c(cc1Nc1ncc(Cl)c(Nc3cccnc3OC)n1)CCN(CC(=O)N(C)C)CC2 [Example 1190, 2-{7-[5-Chloro-4-(2-methoxy-pyridin-3-ylamino)-pyrimidin-2-ylamino]-8-methoxy-1,2,4,5-tetrahydro-benzo[d]azepin-3-yl}-N,N-dimethyl-acetamide] |  |
|  |  | > 7.00 | < 5.00 | COc1cc2c(cc1Nc1ncc(Cl)c(Nc3ccc(C(N)=O)cc3OC)n1)CCN(CCS(C)(=O)=O)CC2 [Example 1161, 4-{5-Chloro-2-[3-(2-methanesulfonyl-ethyl)-8-methoxy-2,3,4,5-tetrahydro-1H-benzo[d]azepin-7-ylamino]-pyrimidin-4-ylamino}-3-methoxy-benzamide] |  |
| > 7.00 | 6.00 to 7.00 |  |  | COc1cc2c(cc1Nc1ncc(Cl)c(Nc3ccccc3S(=O)(=O)N3CCC(O)C3)n1)CCN(CCO)CC2 (stereo not drawn) [Example 1551, 1-(2-{5-Chloro-2-[3-(2-hydroxy-ethyl)-8-methoxy-2,3,4,5-tetrahydro-1H-3-benzazepin-7-ylamino]-pyrimidin-4-ylamino}-benzenesulfonyl)-pyrrolidin-3-ol] |  |
|  |  | > 7.00 | 5.00 to 6.00 | COCCN1CCc2ccc(Nc3ncc(Cl)c(Nc4c(F)cccc4S(=O)(=O)C(C)C)n3)cc2CC1 [Example 1253, 5-Chloro-N(4)-[2-fluoro-6-(propane-2-sulfonyl)-phenyl]-N(2)-[3-(2-methoxy-ethyl)-2,3,4,5-tetrahydro-1H-3-benzazepin-7-yl]-pyrimidine-2,4-diamine] |  |
